# Measured values: patent US11707503B2, “Modulators of complement activity” (Ra Pharmaceuticals, Inc., priority 2015, dated 2023)
# Starred links: 1 amine or outer side, 2 acyl side, 3 side chain; linkers in the order of their positions; H or OH if unused. Positions of bridges follow the written chain, without caps; N, C: chain ends. Non-standard residues stand in square brackets, D forms with d. Residues, ends and D or L forms follow the SMILES beside them. Ala(1H-tetrazol-5-yl) = N[C@@H](Cc1nnn[nH]1)C(=O)O; Trp(7-aza) = N[C@@H](Cc1c[nH]c2ncccc12)C(=O)O; hPhe(3-Cl) = N[C@@H](CCc1cccc(Cl)c1)C(=O)O; 2Nal = N[C@@H](Cc1ccc2ccccc2c1)C(=O)O; mXylylene = c1cc(C[*:1])cc(C[*:2])c1; Chg = N[C@H](C(=O)O)C1CCCCC1; Tle = CC(C)(C)[C@H](N)C(=O)O; Ac5c = NC1(C(=O)O)CCCC1; Nva = CCC[C@H](N)C(=O)O; Thp = NC1(C(=O)O)CCOCC1
# Molecular target: C5 (Homo sapiens, UniProt P01031)
# Assay: Alternative human hemolysis assay using C5 depleted sera and purified human C5
# Format: cell-based
# Design: purchased Complement Technology, Tyler, Tex
# Conditions: 1.5% human C5 depleted sera, 0.5 nM purified human C5
# Sequence of C5 (P01031 678-1676 limits assumed): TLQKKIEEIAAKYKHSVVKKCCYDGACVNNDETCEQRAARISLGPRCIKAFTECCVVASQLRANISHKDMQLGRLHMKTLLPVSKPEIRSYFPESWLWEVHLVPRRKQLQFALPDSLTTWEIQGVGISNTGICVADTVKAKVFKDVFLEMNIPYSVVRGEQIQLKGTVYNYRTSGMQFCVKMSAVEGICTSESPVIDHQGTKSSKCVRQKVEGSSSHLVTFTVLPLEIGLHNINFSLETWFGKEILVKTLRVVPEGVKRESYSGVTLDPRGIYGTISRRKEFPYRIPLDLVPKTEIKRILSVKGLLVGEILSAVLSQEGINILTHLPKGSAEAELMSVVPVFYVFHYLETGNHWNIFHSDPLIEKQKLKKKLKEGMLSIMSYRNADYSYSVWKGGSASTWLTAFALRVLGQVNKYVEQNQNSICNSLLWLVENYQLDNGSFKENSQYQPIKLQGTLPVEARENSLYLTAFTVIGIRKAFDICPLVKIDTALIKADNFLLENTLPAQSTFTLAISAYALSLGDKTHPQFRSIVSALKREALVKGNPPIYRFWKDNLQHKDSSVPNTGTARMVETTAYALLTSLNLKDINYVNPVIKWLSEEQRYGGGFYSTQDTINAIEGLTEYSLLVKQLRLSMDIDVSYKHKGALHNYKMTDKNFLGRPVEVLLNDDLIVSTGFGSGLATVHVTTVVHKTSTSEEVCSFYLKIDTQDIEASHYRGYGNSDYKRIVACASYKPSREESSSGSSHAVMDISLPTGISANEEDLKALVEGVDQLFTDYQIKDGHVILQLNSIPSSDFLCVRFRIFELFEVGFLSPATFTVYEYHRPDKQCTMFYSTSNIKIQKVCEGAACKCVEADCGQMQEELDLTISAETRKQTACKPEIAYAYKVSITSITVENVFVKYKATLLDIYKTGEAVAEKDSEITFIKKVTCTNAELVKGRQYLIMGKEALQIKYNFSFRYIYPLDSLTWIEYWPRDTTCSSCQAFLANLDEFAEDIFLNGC
# Sequence of C5 (P01031 19-673 limits assumed): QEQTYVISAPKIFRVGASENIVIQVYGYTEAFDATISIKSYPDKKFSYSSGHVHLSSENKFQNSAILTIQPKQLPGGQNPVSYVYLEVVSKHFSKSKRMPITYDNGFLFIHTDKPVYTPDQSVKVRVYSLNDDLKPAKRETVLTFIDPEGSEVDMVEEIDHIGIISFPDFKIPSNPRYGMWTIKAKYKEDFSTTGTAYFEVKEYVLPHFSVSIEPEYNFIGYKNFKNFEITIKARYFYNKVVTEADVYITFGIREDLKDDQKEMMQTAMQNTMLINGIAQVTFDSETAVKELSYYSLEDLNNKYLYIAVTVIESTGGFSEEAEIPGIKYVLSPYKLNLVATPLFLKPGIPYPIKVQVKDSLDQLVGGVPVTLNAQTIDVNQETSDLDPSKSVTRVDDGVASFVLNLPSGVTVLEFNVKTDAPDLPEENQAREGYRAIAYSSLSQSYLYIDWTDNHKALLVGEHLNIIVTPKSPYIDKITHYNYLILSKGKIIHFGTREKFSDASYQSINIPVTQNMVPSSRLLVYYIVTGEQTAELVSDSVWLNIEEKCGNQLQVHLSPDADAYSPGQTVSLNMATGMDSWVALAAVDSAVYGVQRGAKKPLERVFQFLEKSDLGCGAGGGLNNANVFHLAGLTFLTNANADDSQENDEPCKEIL
row,Compound,IC50 [nM]
1,"CCC[C@H](NC(=O)[C@@H](NC(=O)[C@@H]1CCCN1C(=O)[C@H](Cc1c[nH]c2ccccc12)NC(=O)[C@H](CCC(=O)O)NC(=O)[C@H](Cc1c[nH]c2ncccc12)NC(=O)[C@H](Cc1ccc(O)cc1)NC(=O)[C@@H](NC(=O)[C@H](CC(=O)O)NC(=O)[C@@H]1CSCc2cccc(c2)CSC[C@H](NC(C)=O)C(=O)N[C@@H](C(C)C)C(=O)N[C@@H](CCC(=O)O)C(=O)N[C@@H](CCCNC(=N)N)C(=O)N[C@@H](Cc2ccccc2)C(=O)N1)C(C)(C)C)C1CCCCC1)C(=O)O [Compound R3177, [mXylyl(1,6)]Ac-C-V-E-R-F-C-D-Tbg-Y-azaTrp-E-W-P-Chg-Nvl] (Ac-CVERFCD[Tle]Y[Trp(7-aza)]EWP[Chg][Nva]-OH; linker 1-6 via mXylylene)",12

# Same assay, conditions: […] human C5 depleted sera, 0.5 nM purified human C5
row,Compound,IC50 [nM]
1,"CCC[C@H](NC(=O)[C@@H](NC(=O)[C@@H]1CCCN1C(=O)[C@H](Cc1ccc(O)cc1)NC(=O)[C@H](CCC(=O)O)NC(=O)[C@H](Cc1c[nH]c2ncccc12)NC(=O)[C@H](Cc1ccc(O)cc1)NC(=O)[C@@H](NC(=O)[C@H](Cc1nnn[nH]1)NC(=O)[C@@H]1CC(=O)NCCCC[C@H](NC(C)=O)C(=O)N[C@@H](C(C)C)C(=O)N[C@@H](CCC(=O)O)C(=O)N[C@@H](CCCNC(=N)N)C(=O)N[C@@H](Cc2ccccc2)C(=O)N1)C(C)(C)C)C1CCCCC1)C(=O)O [Compound R3174, [cyclo(1,6)]Ac-K-V-E-R-F-D-Asp(T)-Tbg-Y-azaTrp-E-Y-P-Chg-Nvl] (Ac-KVERFD[Ala(1H-tetrazol-5-yl)][Tle]Y[Trp(7-aza)]EYP[Chg][Nva]-OH; lactam 1-6; C-terminus assumed)",2.3
2,"CCC[C@H](NC(=O)[C@@H](NC(=O)[C@@H]1CCCN1C(=O)[C@H](CCc1cccc(Cl)c1)NC(=O)[C@H](CCC(=O)O)NC(=O)[C@H](Cc1c[nH]c2ncccc12)NC(=O)[C@H](Cc1ccc(O)cc1)NC(=O)[C@@H](NC(=O)[C@H](CC(=O)O)NC(=O)[C@@H]1CSCc2cccc(c2)CSC[C@H](NC(C)=O)C(=O)N[C@@H](C(C)C)C(=O)N[C@@H](CCC(=O)O)C(=O)N[C@@H](CCCNC(=N)N)C(=O)N[C@@H](Cc2ccccc2)C(=O)N1)C(C)(C)C)C1CCCCC1)C(=O)O [Compound R3179, [mXylyl(1,6)]Ac-C-V-E-R-F-C-D-Tbg-Y-azaTrp-E-(m-Cl-homo)Phe-P-Chg-Nvl] (Ac-CVERFCD[Tle]Y[Trp(7-aza)]E[hPhe(3-Cl)]P[Chg][Nva]-OH; linker 1-6 via mXylylene; C-terminus assumed)",83
3,"CCC[C@H](NC(=O)[C@@H](NC(=O)[C@@H]1CCCN1C(=O)[C@H](Cc1ccc2ccccc2c1)NC(=O)[C@H](CCC(=O)O)NC(=O)[C@H](Cc1c[nH]c2ncccc12)NC(=O)[C@H](Cc1ccc(O)cc1)NC(=O)[C@@H](NC(=O)[C@H](CC(=O)O)NC(=O)[C@@H]1CSCc2cccc(c2)CSC[C@H](NC(C)=O)C(=O)N[C@@H](C(C)C)C(=O)N[C@@H](CCC(=O)O)C(=O)N[C@@H](CCCNC(=N)N)C(=O)N[C@@H](Cc2ccccc2)C(=O)N1)C(C)(C)C)C1CCCCC1)C(=O)O [Compound R3180, [mXylyl(1,6)]Ac-C-V-E-R-F-C-D-Tbg-Y-azaTrp-E-2Nal-P-Chg-Nvl] (Ac-CVERFCD[Tle]Y[Trp(7-aza)]E[2Nal]P[Chg][Nva]-OH; linker 1-6 via mXylylene; C-terminus assumed)",29
4,"CCC[C@H](NC(=O)[C@@H](NC(=O)[C@@H]1CCCN1C(=O)[C@H](Cc1ccc(O)cc1)NC(=O)[C@H](CCC(=O)O)NC(=O)[C@H](Cc1cccc(CN)c1)NC(=O)[C@H](Cc1ccc(O)cc1)NC(=O)[C@@H](NC(=O)[C@H](CC(=O)O)NC(=O)[C@@H]1CSCc2cccc(c2)CSC[C@H](NC(C)=O)C(=O)N[C@@H](C(C)C)C(=O)N[C@@H](CCC(=O)O)C(=O)N[C@@H](CCCNC(=N)N)C(=O)N[C@@H](Cc2ccccc2)C(=O)N1)C(C)(C)C)C1CCCCC1)C(=O)O [Compound R3181, [mXylyl(1,6)]Ac-C-V-E-R-F-C-D-Tbg-Y-(3-aminomethyl)Phe-E-Y-P-Chg-Nvl]",1500
5,"CCC[C@H](NC(=O)[C@@H](NC(=O)[C@@H]1CCCN1C(=O)[C@H](Cc1ccc(O)cc1)NC(=O)[C@H](CCC(=O)O)NC(=O)[C@H](Cc1c[nH]c2ncccc12)NC(=O)[C@H](Cc1ccc(O)cc1)NC(=O)[C@@H](NC(=O)C1(NC(=O)[C@@H]2CSCc3cccc(c3)CSC[C@H](NC(C)=O)C(=O)N[C@@H](C(C)C)C(=O)N[C@@H](CCC(=O)O)C(=O)N[C@@H](CCCNC(=N)N)C(=O)N[C@@H](Cc3ccccc3)C(=O)N2)CCCC1)C(C)(C)C)C1CCCCC1)C(=O)O [Compound R3185, [mXylyl(1,6)]Ac-C-V-E-R-F-C-Cle-Tbg-Y-azaTrp-E-Y-P-Chg-Nvl] (Ac-CVERFC[Ac5c][Tle]Y[Trp(7-aza)]EYP[Chg][Nva]-OH; linker 1-6 via mXylylene; C-terminus assumed)",12.5
6,"CCC[C@H](NC(=O)[C@@H](NC(=O)[C@@H]1CCCN1C(=O)[C@H](Cc1ccc(O)cc1)NC(=O)[C@H](CCC(=O)O)NC(=O)[C@H](Cc1c[nH]c2ncccc12)NC(=O)[C@H](Cc1ccc(O)cc1)NC(=O)[C@@H](NC(=O)C1(NC(=O)[C@@H]2CSCc3cccc(c3)CSC[C@H](NC(C)=O)C(=O)N[C@@H](C(C)C)C(=O)N[C@@H](CCC(=O)O)C(=O)N[C@@H](CCCNC(=N)N)C(=O)N[C@@H](Cc3ccccc3)C(=O)N2)CCOCC1)C(C)(C)C)C1CCCCC1)C(=O)O [Compound R3186, [mXylyl(1,6)]Ac-C-V-E-R-F-C-(Ac-Pyran)-Tbg-Y-azaTrp-E-Y-P-Chg-Nvl] (Ac-CVERFC[Thp][Tle]Y[Trp(7-aza)]EYP[Chg][Nva]-OH; linker 1-6 via mXylylene; C-terminus assumed)",18
7,"CCCCCCCCCCCCCCCC(=O)NCCCC[C@H](NC(=O)[C@@H](NC(=O)[C@@H]1CCCN1C(=O)[C@H](Cc1ccc(O)cc1)NC(=O)[C@H](CCC(=O)O)NC(=O)[C@H](Cc1c[nH]c2ncccc12)NC(=O)[C@H](Cc1ccc(O)cc1)NC(=O)[C@@H](NC(=O)[C@H](CC(=O)O)NC(=O)[C@@H]1CSCc2cccc(c2)CSC[C@H](NC(C)=O)C(=O)N[C@@H](C)C(=O)N[C@@H](CCC(=O)O)C(=O)N[C@@H](CCCNC(=N)N)C(=O)N[C@@H](Cc2ccccc2)C(=O)N1)C(C)(C)C)c1ccccc1)C(=O)O [Compound R3189, [mXylyl(1,6)]Ac-C-A-E-R-F-C-D-Tbg-Y-azaTrp-E-Y-P-Phg-(Lys-C16)]",81.5
8,"CCCCCCCCCCCCCCCC(=O)NCCCC[C@H](NC(=O)[C@@H](NC(=O)[C@@H]1CCCN1C(=O)[C@H](Cc1ccc(O)cc1)NC(=O)[C@H](CCC(=O)O)NC(=O)[C@H](Cc1c[nH]c2ccccc12)NC(=O)[C@H](Cc1ccc(O)cc1)NC(=O)[C@@H](NC(=O)[C@H](CC(=O)O)N(C)C(=O)[C@@H]1CC(=O)NCCCC[C@H](NC(C)=O)C(=O)N[C@@H](C(C)C)C(=O)N[C@@H](CCC(=O)O)C(=O)N[C@@H](CCCNC(=N)N)C(=O)N[C@@H](Cc2ccccc2)C(=O)N1)C(C)(C)C)C1CCCCC1)C(=O)O [Compound R3195, [cyclo(1,6)]Ac-K-V-E-R-F-D-(N—Me)D-Tbg-Y-W-E-Y-P-Chg-(Lys-C16)]",62.5
9,"CC(=O)N[C@H]1CCCCNC(=O)C[C@@H](C(=O)N(C)[C@@H](CC(=O)O)C(=O)N[C@H](C(=O)N[C@@H](Cc2ccc(O)cc2)C(=O)N[C@@H](Cc2c[nH]c3ccccc23)C(=O)N[C@@H](CCC(=O)O)C(=O)N[C@@H](Cc2ccc(O)cc2)C(=O)N2CCC[C@H]2C(=O)N[C@H](C(=O)N[C@@H](CCCCN)C(=O)O)C2CCCCC2)C(C)(C)C)NC(=O)[C@H](Cc2ccccc2)NC(=O)[C@H](CCCNC(=N)N)NC(=O)[C@H](CCC(=O)O)NC(=O)[C@H](C(C)C)NC1=O [Compound R3196, [cyclo(1,6)]Ac-K-V-E-R-F-D-(N—Me)D-Tbg-Y-W-E-Y-P-Chg-K]",3
10,"CC(=O)N[C@H]1CCCCNC(=O)C[C@@H](C(=O)N(C)[C@@H](CC(=O)O)C(=O)N[C@H](C(=O)N[C@@H](Cc2ccc(O)cc2)C(=O)N[C@@H](Cc2c[nH]c3ccccc23)C(=O)N[C@@H](CCC(=O)O)C(=O)N[C@@H](Cc2ccc(O)cc2)C(=O)N2CCC[C@H]2C(=O)N[C@H](C(=O)N[C@@H](CCCCNC(CC(C)C)=C2C(=O)CC(C)(C)CC2=O)C(=O)O)C2CCCCC2)C(C)(C)C)NC(=O)[C@H](Cc2ccccc2)NC(=O)[C@H](CCCNC(=N)N)NC(=O)[C@H](CCC(=O)O)NC(=O)[C@H](C(C)C)NC1=O [Compound R3197, [cyclo(1,6)]Ac-K-V-E-R-F-D-(N—Me)D-Tbg-Y-W-E-Y-P-Chg-K14]",4
11,"CCCCCCCCCCCCCCCC(=O)NCCCC[C@H](NC(=O)[C@@H](NC(=O)[C@@H]1CCCN1C(=O)[C@H](Cc1ccc(O)cc1)NC(=O)[C@H](CCC(=O)O)NC(=O)[C@H](Cc1c[nH]c2ncccc12)NC(=O)[C@H](Cc1ccc(O)cc1)NC(=O)[C@@H](NC(=O)[C@H](CC(=O)O)N(C)C(=O)[C@@H]1CSSCCC(=O)N[C@H](C)C(=O)N[C@@H](CCC(=O)O)C(=O)N[C@@H](CCCNC(=N)N)C(=O)N[C@@H](Cc2ccccc2)C(=O)N1)C(C)(C)C)C1CCCCC1)C(=O)O [Compound R3199, [cyclo(1,6)](desamino)C-(D-Ala)-E-R-F-C-(N—Me)D-Tbg-Y-azaTrp-E-Y-P-Chg-(Lys-C16)]",112
12,"CCCCCCCCCCCCCCCC(=O)NCCCC[C@H](NC(=O)C(C)(C)NC(=O)[C@@H]1CCCN1C(=O)[C@H](Cc1ccc(O)cc1)NC(=O)[C@H](CCC(=O)O)NC(=O)[C@H](Cc1c[nH]c2ncccc12)NC(=O)[C@H](Cc1ccc(O)cc1)NC(=O)[C@@H](NC(=O)[C@H](CC(=O)O)N(C)C(=O)[C@@H]1CC(=O)NCCCC[C@H](NC(C)=O)C(=O)N[C@@H](C(C)C)C(=O)N[C@@H](CCC(=O)O)C(=O)N[C@@H](CCCNC(=N)N)C(=O)N[C@@H](Cc2ccccc2)C(=O)N1)C(C)(C)C)C(=O)O [Compound R3200, [cyclo(1,6)]Ac-K-V-E-R-F-D-(N—Me)D-Tbg-Y-azaTrp-E-Y-P-Aib-(Lys-C16)]",88.5
